Assay results: the Deep4Chem optical property database

Test: photoluminescence quantum yield (fraction); solvent given as SMILES

## Nc1cc2oc3cc(O)c(F)cc3c(=O)c2cc1F
In CCO
  photoluminescence quantum yield: 0.44

## c1csc(-c2nc3ccccc3c3cc4ccccn4c23)c1
In CS(C)=O
  photoluminescence quantum yield: 0.2

## COc1ccc(C2=[N+]3C(=Cc4c5ccc(OC)cc5c(-c5ccc(OC)cc5)n4[B-]3(F)F)c3ccc(OC)cc32)cc1
In ClCCl
  photoluminescence quantum yield: 0.49

## N#Cc1c(-n2c3ccccc3c3cc(Br)ccc32)c(C#N)c(-n2c3ccccc3c3cc(Br)ccc32)c(-n2c3ccccc3c3cc(Br)ccc32)c1-n1c2ccccc2c2cc(Br)ccc21
In Cc1ccccc1
  photoluminescence quantum yield: 0.85

## COc1ccccc1CC(=O)OCc1c(C)c(=O)n2c(=O)c(C)c(C)n12
In CCO
  photoluminescence quantum yield: 0.636

## CCCCCCC(CCCCCC)N1C(=O)c2cccc3c(-c4ccc([Si](C)(C)C)cc4)ccc(c23)C1=O
In CCCCCC
  photoluminescence quantum yield: 0.14
In CCCCCCCCCCCCCC
  photoluminescence quantum yield: 0.18
In CCCCCCCCCCCO
  photoluminescence quantum yield: 0.85
In CCCCO
  photoluminescence quantum yield: 0.89
In CN(C)C=O
  photoluminescence quantum yield: 0.64
In Cc1ccccc1
  photoluminescence quantum yield: 0.51
In ClC(Cl)Cl
  photoluminescence quantum yield: 0.79

## O=c1[nH]c(=O)n([C@@H]2O[C@H](CO)[C@@H](O)[C@H]2O)cc1-c1cc2ccccc2s1
In C1COCCO1
  photoluminescence quantum yield: 0.06
In CC#N
  photoluminescence quantum yield: 0.034
In CO
  photoluminescence quantum yield: 0.047
In O
  photoluminescence quantum yield: 0.035

## CC[Si](CC)(CC)Oc1cccc(O[Si](CC)(CC)CC)c1-c1c2ccccc2c(-c2c(O[Si](CC)(CC)CC)cccc2O[Si](CC)(CC)CC)c2ccccc12
In C1CCCCC1
  photoluminescence quantum yield: 0.96

## CCCCCCCCN1c2ccccc2Sc2cc(/C=C/c3ccc(N(c4ccc(/C=C/c5ccc6c(c5)Sc5ccccc5N6CCCCCCCC)cc4)c4ccc(/C=C/c5ccc(/C=C/c6ccc(N(c7ccc(/C=C/c8ccc(N(c9ccccc9)c9ccccc9)cc8)cc7)c7ccc(/C=C/c8ccc(N(c9ccccc9)c9ccccc9)cc8)cc7)cc6)c6nsnc56)cc4)cc3)ccc21
In C1CCOC1
  photoluminescence quantum yield: 0.031
In CCOC(C)=O
  photoluminescence quantum yield: 0.062
In CN(C)C=O
  photoluminescence quantum yield: 0.001
In Cc1ccccc1
  photoluminescence quantum yield: 0.349
In ClC(Cl)Cl
  photoluminescence quantum yield: 0.06
In ClCCl
  photoluminescence quantum yield: 0.003

## Cc1ccc2nnn(-c3c(C#N)c4c(N)ncnc4n3[C@H]3C[C@H](O)[C@@H](CO)O3)c2c1
In CO
  photoluminescence quantum yield: 0.007

## [O-]c1ccccc1-c1[nH+]c2c3cccnc3c3ncccc3c2n1-c1ccccc1
In Cc1ccccc1
  photoluminescence quantum yield: 0.125

## C(=C(c1ccccc1)c1ccccc1)c1ccc(C=C(c2ccccc2)c2ccccc2)cc1
In C1CCOC1
  photoluminescence quantum yield: 0.017

## CC/[NH+]=c1\cc2oc3cc(NCCOC(=O)C(NC(=O)OC(C)(C)C)C(C)C)c4ccccc4c3nc-2cc1C (configuration not stated)
In CCO
  photoluminescence quantum yield: 0.32
In O
  photoluminescence quantum yield: 0.26

## Cc1sc(-c2ccc(-c3nc(-c4ccccc4)c(-c4ccccc4)[nH]3)cc2)c(C)c1C1=C(c2c(C)n(C)c3ccccc23)C(F)(F)C(F)(F)C1(F)F
In C1CCOC1
  photoluminescence quantum yield: 0.084

## C(#Cc1cc(C#Cc2ccccc2)c(C#Cc2ccccc2)c(C#Cc2ccccc2)c1C#Cc1ccccc1)c1ccccc1
In ClCCl
  photoluminescence quantum yield: 0.26

## COc1ccc(C2=C(C)C3=C(c4c(-c5ccccn5)nc5ccccn45)c4c(C)c(-c5ccc(OC)cc5)c(C)n4[B-](F)(F)[N+]3=C2C)cc1
In ClCCl
  photoluminescence quantum yield: 0.416

## CCCCCCCCC1(CCCCCCCC)c2cc(-c3ccc(C#N)cc3)ccc2-c2ccc(-c3ccc(C#N)cc3)cc21
In ClC(Cl)Cl
  photoluminescence quantum yield: 0.95

## CCCC(=O)c1c2c(c(C(=O)CCC)c3c1OC(CC(=O)OC)(C(=O)O)O3)OCO2
In CC#N
  photoluminescence quantum yield: 0.25
In CCO
  photoluminescence quantum yield: 0.12
In CO
  photoluminescence quantum yield: 0.06
In O
  photoluminescence quantum yield: 0.02

## CCN1c2ccc(/C=N/Nc3ccccn3)cc2Sc2cc(-c3ccc(C#N)cc3)ccc21
In C1CCOC1
  photoluminescence quantum yield: 0.23
In CS(C)=O
  photoluminescence quantum yield: 0.23
In Cc1ccccc1
  photoluminescence quantum yield: 0.33
In ClCCl
  photoluminescence quantum yield: 0.36

## CC[N+]1(CC)CN2C(=N1)C(C(=O)O)=Cc1cc(Oc3ccccc3)ccc12
In O
  photoluminescence quantum yield: 0.592

## CCCCCCCCC1(CCCCCCCC)c2cc(-c3ccc(C(F)(F)F)cc3)ccc2-c2ccc(N(c3ccc(-n4c5ccccc5c5ccccc54)cc3)c3ccc4c(c3)C(CCCCCCCC)(CCCCCCCC)c3cc(-c5ccc(C(F)(F)F)cc5)ccc3-4)cc21
In C1CCOC1
  photoluminescence quantum yield: 0.61
In C1COCCO1
  photoluminescence quantum yield: 0.71
In CC#N
  photoluminescence quantum yield: 0.46
In CC(C)=O
  photoluminescence quantum yield: 0.51
In CCCCCC
  photoluminescence quantum yield: 0.6
In CCCCOCCCC
  photoluminescence quantum yield: 0.67
In CCN(CC)CC
  photoluminescence quantum yield: 0.52
In CCOC(C)=O
  photoluminescence quantum yield: 0.54
In CCOCC
  photoluminescence quantum yield: 0.76
In CN(C)C=O
  photoluminescence quantum yield: 0.52
In CS(C)=O
  photoluminescence quantum yield: 0.47
In Cc1ccccc1
  photoluminescence quantum yield: 0.67
In ClC(Cl)Cl
  photoluminescence quantum yield: 0.47
In ClCCl
  photoluminescence quantum yield: 0.57
In c1ccccc1
  photoluminescence quantum yield: 0.63

## O=C1O[B-]2(OC1=O)OC(c1ccc3ccccc3c1)=CC(c1ccc3ccccc3c1)=[O+]2
In CC#N
  photoluminescence quantum yield: 0.3
In ClC(Cl)(Cl)Cl
  photoluminescence quantum yield: 0.8

## COc1ccc2c3c(c4ccc(OC)cc4c2c1)C1(c2ccccc2-c2ccccc21)c1ccccc1-3
In C1CCCCC1
  photoluminescence quantum yield: 0.21

## C(=C\c1nc2ccccc2o1)/c1ccccc1
In C1CCCCC1
  photoluminescence quantum yield: 0.05
In CO
  photoluminescence quantum yield: 0.006

## F[B-]1(F)OC(c2ccc(C(F)(F)F)cc2)=Cc2c3ccccc3cc[n+]21
In ClC(Cl)Cl
  photoluminescence quantum yield: 0.026

## COc1ccc2c(c1)-c1ccccc1C2=O
In C1CCCCC1
  photoluminescence quantum yield: 0.0007
In CC#N
  photoluminescence quantum yield: 0.034
In CCO
  photoluminescence quantum yield: 0.002

## CCCCCCCCCCOc1cc(OCCCCCCCCCC)cc(C2=C3C(/C=C/c4ccc(OC)cc4)=CC(/C=C/c4ccc(OC)cc4)=[N+]3[B-](F)(F)n3c(/C=C/c4ccc(OC)cc4)cc(C=Cc4ccc(OC)cc4)c32)c1
In ClC(Cl)Cl
  photoluminescence quantum yield: 0.34

## Cc1ccc(C2=[N+]3C(=Cc4ccc(C)n4[B-]3(F)F)c3ccccc32)[nH]1
In C1CCOC1
  photoluminescence quantum yield: 0.81
In CC#N
  photoluminescence quantum yield: 0.8
In CCCCCC
  photoluminescence quantum yield: 0.83
In CO
  photoluminescence quantum yield: 0.83
In Cc1ccccc1
  photoluminescence quantum yield: 0.78
In ClCCl
  photoluminescence quantum yield: 0.79

## COc1ccc(-c2nc(-c3ccc(-c4nc(-c5ccc(OC)cc5)c(-c5ccc(OC)cc5)[nH]4)s3)[nH]c2-c2ccc(OC)cc2)cc1
In CC#N
  photoluminescence quantum yield: 0.62

## CCn1c2ccccc2c2cc(-c3cc(-c4ccc5c(c4)c4ccccc4n5CC)nc(SC)n3)ccc21
In C1CCOC1
  photoluminescence quantum yield: 0.23
In CCOC(C)=O
  photoluminescence quantum yield: 0.39
In CN(C)C=O
  photoluminescence quantum yield: 0.46
In Cc1ccccc1
  photoluminescence quantum yield: 0.35
In ClCCl
  photoluminescence quantum yield: 0.31

## Cc1cccc(-c2[nH]c(=O)n3c2-c2ccccc2C3=O)c1O
In CC#N
  photoluminescence quantum yield: 0.52
In CO
  photoluminescence quantum yield: 0.15
In ClCCl
  photoluminescence quantum yield: 0.6

## CCCCC1(CCCC)c2cc(C#Cc3ccc(C=C(c4ccccc4)c4ccccc4)cc3)ccc2-c2ccc(C#Cc3ccc(C=C(c4ccccc4)c4ccccc4)cc3)cc21
In C1CCOC1
  photoluminescence quantum yield: 0.048

## COc1cc(C(=O)O)cc(OC)c1O
In O
  photoluminescence quantum yield: 0.009

## CC[N+](CC)=c1ccc2c(C(F)(F)F)c3c(oc-2c1)-c1ccc(N(C)C)cc1CC3
In CCO
  photoluminescence quantum yield: 0.163
In ClCCl
  photoluminescence quantum yield: 0.336
In O
  photoluminescence quantum yield: 0.039

## c1ccc2[nH]c(-c3ccc(-c4ccc(-c5ccc(-c6nc7ccccc7[nH]6)cc5)cc4)cc3)nc2c1
In CN(C)C=O
  photoluminescence quantum yield: 0.88

## c1ccc(C2=C(c3ccccc3)c3cccc4c3c(cc3nc5ccccc5nc34)O2)cc1
In ClCCl
  photoluminescence quantum yield: 0.54

## CCn1c2ccccc2c2cc(/C=C/c3cccc(/C=C/c4ccc5c(c4)c4ccccc4n5CC)[n+]3CCCS(=O)(=O)[O-])ccc21
In C1CCOC1
  photoluminescence quantum yield: 0.1
In CC#N
  photoluminescence quantum yield: 0.03
In CC(C)=O
  photoluminescence quantum yield: 0.03
In Cc1ccccc1
  photoluminescence quantum yield: 0.08
